Test results taken from patent publication US9783495B2, “Treatment for lipodystrophy” (Cadila Healthcare Limited, priority 2011, dated 2017).

Assays:
[1] = tested on: subjects with hypertriglyceridemia in HIV associated lipodystrophy; test: Prospective, multi-centric, open-label, single arm study of 4 mg of compound of formula (I) in hypertriglyceridemia in HIV associated lipodystrophy; assay type: in vivo, human; conditions: 4 mg oral once daily; for Homa of Insulin Resistance for C-Peptide, Mean ± SD: Visit 1 mean 1.59 ± 0.82; for Insulin (fasting), Mean ± SD: Visit 1 mean 9.21 ± 6.26; for HDL Cholesterol, Mean ± SD: Visit 1 mean 35.27 ± 7.85; for HOMA of Beta Cell Function for Insulin, Mean ± SD: Visit 1 mean 107.82 ± 52.85; for TG, Mean ± SD: Visit 1 mean 301.68 ± 86.99; for Homa of Insulin Resistance for C-Peptide, Median: Visit 1 median 1.40; for Insulin (fasting), Median: Visit 1 median 7.40; for HDL Cholesterol, Median: Visit 1 median 34.52; for HOMA of Beta Cell Function for Insulin, Median: Visit 1 median 97.25; for TG, Median: Visit 1 median 275.45
Text: After obtaining informed written consent, subjects with hypertriglyceridemia in HIV associated lipodystrophy, on treatment with HAART for at least 18 months and satisfying the inclusion and exclusion criteria were enrolled in the study.
The primary efficacy endpoint was to assess the percent change in TG levels from baseline to Week 6 and Week 12. The secondary efficacy endpoint was the assessment of LDL, VLDL, HDL, Non HDL cholesterol, Total cholesterol, Apo Al, Apo B, and C-peptide and fasting insulin for HOMA beta and HOMA IR.
For the efficacy endpoints, treatment effect was evaluated using an analysis of variance (ANOVA) model with factors for baseline and treatment. Treatment effects were estimated using the least-square means (LSM) and 95% confidence intervals (CIs) from the ANOVA model. Statistical significance was defined as a two-sided p-value <0.05. All other secondary endpoints were analyzed using appropriate statistical methods.
Subjects who satisfied all of the following criteria were eligible for enrolment in the study: • 1. Males and females aged 18-65 years. • 2. Confirmed diagnosis of HIV1 and on HAART for at least 18 months. • 3. On stable ART regimen for at least 8 weeks prior to inclusion in the study and ART regimen not expected to change in next 3 months. • 4. Subjects clinically diagnosed as HIV lipodystrophy (at least 1 moderate or severe lipodystrophy feature identified by doctor and patient, except isolated abdominal obesity) • 5. Triglycerides>200 to 500 mg %. • 6. CD4 count of>50/mm^3 • 7. Subject who had given informed consent for participation in this trial. Treatments Treatments Administered […]
The primary efficacy endpoint was to determine the percent change in TG levels from baseline to Week 6 and Week 12.
The secondary efficacy endpoint was to determine the percent change in LDL, VLDL, HDL, total cholesterol, non-HDL Cholesterol (measured value), Apo Al, and Apo B, C-peptide and fasting insulin for HOMA beta and HOMA IR levels from baseline to Week 6 and Week 12.
The primary efficacy variable was the reduction in TG at Week 6 and Week 12 of the treatment period compared with baseline. The change from baseline was determined as the difference between the means for the treatment period (Weeks 6/Weeks 12) and the baseline.
Intent-to-treat (ITT) and/or Per Protocol (PP) analysis were carried out for the study. The PP analysis was considered definitive while the ITT analysis was considered supportive during the trial analysis.
One subject identified as EHT004 in the study, a person, was reported with abnormally low levels of HDL (3.95 mg/L) and LDL (6.25 mg/L) at Visit 1. Though this subject completed the study and was assessable for efficacy, it was decided to exclude this subject from the efficacy analyses. Therefore a total of 49 subjects were analyzed for efficacy.

[2] = Phase I study, effect of food on absorption; assay type: in vivo, human
[3] = tested on: Dyslipidemia subjects; test: Phase II studies in Dyslipidemia subjects; assay type: in vivo, human; conditions: 4 mg once daily
Description: This was exploratory proof of concept study designed to assess the proof of safety and efficacy in intended population. […] Based upon these observations 4 mg once daily in fasted condition was selected for present study

[4] = tested on: HIV-infected men with central obesity and low testosterone levels; conditions: transdermal gel 10 g daily, 24 weeks, cited from earlier work
[5] = Visit 3 (Week 6), p <0.0001, listed as COMPOUND OF FORMULA(I)
[6] = Visit 4 (Week 12), p <0.0001, listed as COMPOUND OF FORMULA(I)

## (S)-α-Ethoxy-4-[2-[-methyl-5-[4-(methylthio)phenyl]-1H-pyrrol-1-yl]ethoxy] benzenepropanoic acid magnesium salt [compound of formula (I)]
[1]; Visit 3 (Week 6)
  HDL Cholesterol, Maximum: 73.50 mg/dL
  HDL Cholesterol, Minimum: 20.13 mg/dL
  HOMA of Beta Cell Function for Insulin, Maximum: 348.00
  HOMA of Beta Cell Function for Insulin, Minimum: 34.90
  Homa of Insulin Resistance for C-Peptide, Maximum: 3.60
  Homa of Insulin Resistance for C-Peptide, Minimum: 0.90
  Insulin (fasting), Maximum: 26.82 μu/mL
  Insulin (fasting), Minimum: 2.14 μu/mL
  TG, Maximum: 631.08 mg/dL
  TG, Minimum: 42.61 mg/dL
  Homa of Insulin Resistance for C-Peptide, Mean ± SD: 1.86 ± 0.77
  Insulin (fasting), Mean ± SD: 10.42 ± 5.74 μu/mL
  HDL Cholesterol, Mean ± SD: 44.44 ± 14.04 mg/dL
  HOMA of Beta Cell Function for Insulin, Mean ± SD: 136.41 ± 76.00
  TG, Mean ± SD: 172.81 ± 106.30 mg/dL
  Homa of Insulin Resistance for C-Peptide, Median: 1.70
  Insulin (fasting), Median: 8.35 μu/mL
  HDL Cholesterol, Median: 43.36 mg/dL
  HOMA of Beta Cell Function for Insulin, Median: 116.50
  TG, Median: 147.68 mg/dL
[1]; Visit 3 (Week 6), p 0.0010
  HOMA of Beta Cell Function for Insulin, % Change from Visit 1 (LS Mean ± SE): 52.50±14.94%
[1]; Visit 3 (Week 6), p 0.0010, listed as COMPOUND OF FORMULA(I)
  HOMA of Beta Cell Function for Insulin, % Change from Visit 1 (LS Mean ± SE): 52.50 ± 14.94%
[1]; Visit 3 (Week 6), p 0.0015
  HOMA of Beta Cell Function for Insulin, Change from Visit 1 (LS Mean ± SE): 29.55 ± 8.76
[1]; Visit 3 (Week 6), p <0.0001
  HDL Cholesterol, % Change from Visit 1 (LS Mean ± SE): 29.92±5.73%
  HDL Cholesterol, Change from Visit 1 (LS Mean ± SE): 9.17 ± 1.99 mg/dL
  Homa of Insulin Resistance for C-Peptide, % Change from Visit 1 (LS Mean ± SE): 27.87±4.22%
  Homa of Insulin Resistance for C-Peptide, Change from Visit 1 (LS Mean ± SE): 0.27 ± 0.05
  Insulin (fasting), % Change from Visit 1 (LS Mean ± SE): 23.71±3.55%
  Insulin (fasting), Change from Visit 1 (LS Mean ± SE): 1.21 ± 0.22 μu/mL
  TG, % Change from Visit 1 (LS Mean ± SE): -40.98±4.89%
  TG, Change from Visit 1 (LS Mean ± SE): -128.87 ± 14.96 mg/dL
[1]; [5]
  HDL Cholesterol, % Change from Visit 1 (LS Mean ± SE): 29.92 ± 5.73%
  Homa of Insulin Resistance for C-Peptide, % Change from Visit 1 (LS Mean ± SE): 27.87 ± 4.22%
  Insulin (fasting), % Change from Visit 1 (LS Mean ± SE): 23.71 ± 3.55%
  TG, % Change from Visit 1 (LS Mean ± SE): −40.98 ± 4.89%
[1]; Visit 4 (Week 12)
  HDL Cholesterol, Maximum: 82.89 mg/dL
  HDL Cholesterol, Minimum: 17.61 mg/dL
  HOMA of Beta Cell Function for Insulin, Maximum: 273.30
  HOMA of Beta Cell Function for Insulin, Minimum: 9.80
  Homa of Insulin Resistance for C-Peptide, Maximum: 3.60
  Homa of Insulin Resistance for C-Peptide, Minimum: 1.10
  Insulin (fasting), Maximum: 24.29 μu/mL
  Insulin (fasting), Minimum: 5.93 μu/mL
  TG, Maximum: 387.69 mg/dL
  TG, Minimum: 46.88 mg/dL
  Homa of Insulin Resistance for C-Peptide, Mean ± SD: 2.15 ± 0.62
  Insulin (fasting), Mean ± SD: 11.40 ± 4.45 μu/mL
  HDL Cholesterol, Mean ± SD: 46.14 ± 14.84 mg/dL
  HOMA of Beta Cell Function for Insulin, Mean ± SD: 137.56 ± 46.11
  TG, Mean ± SD: 166.97 ± 89.17 mg/dL
  Homa of Insulin Resistance for C-Peptide, Median: 2.10
  Insulin (fasting), Median: 10.18 μu/mL
  HDL Cholesterol, Median: 47.70 mg/dL
  HOMA of Beta Cell Function for Insulin, Median: 125.60
  TG, Median: 145.91 mg/dL
[1]; Visit 4 (Week 12), p <0.0001
  HDL Cholesterol, % Change from Visit 1 (LS Mean ± SE): 34.56±6.13%
  HDL Cholesterol, Change from Visit 1 (LS Mean ± SE): 10.87 ± 2.08 mg/dL
  HOMA of Beta Cell Function for Insulin, % Change from Visit 1 (LS Mean ± SE): 45.64±6.22%
  HOMA of Beta Cell Function for Insulin, Change from Visit 1 (LS Mean ± SE): 30.78 ± 4.25
  Homa of Insulin Resistance for C-Peptide, % Change from Visit 1 (LS Mean ± SE): 58.29±5.74%
  Homa of Insulin Resistance for C-Peptide, Change from Visit 1 (LS Mean ± SE): 0.56 ± 0.05
  Insulin (fasting), % Change from Visit 1 (LS Mean ± SE): 47.10±4.21%
  Insulin (fasting), Change from Visit 1 (LS Mean ± SE): 2.20 ± 0.21 μu/mL
  TG, % Change from Visit 1 (LS Mean ± SE): -45.11±3.60%
  TG, Change from Visit 1 (LS Mean ± SE): -134.71 ± 10.78 mg/dL
[1]; [6]
  HDL Cholesterol, % Change from Visit 1 (LS Mean ± SE): 34.56 ± 6.13%
  HOMA of Beta Cell Function for Insulin, % Change from Visit 1 (LS Mean ± SE): 45.64 ± 6.22%
  Homa of Insulin Resistance for C-Peptide, % Change from Visit 1 (LS Mean ± SE): 58.29 ± 5.74%
  Insulin (fasting), % Change from Visit 1 (LS Mean ± SE): 47.10 ± 4.21%
  TG, % Change from Visit 1 (LS Mean ± SE): −45.11 ± 3.60%
[1]; Week 6, p 0.0104
  increase in the HOMA of Beta-cell function derived from C-peptide from baseline: 68.25±25.58
[1]; Week 6, p <0.0001
  HOMA of insulin resistance derived from insulin, percent change from baseline: 29.10±3.94%
[1]; Week 6 and Week 12, p-values 0.3963 and 0.4646
  change in the non-HDL cholesterol levels from baseline: no statistically significant change
[1]; Week 12, p <0.0001
  HOMA of insulin resistance derived from insulin, percent change from baseline: 42.65±3.79%
  increase in the HOMA of Beta-cell function derived from C-peptide from baseline: 71.67±16.20
[2]
  effect of food on absorption: food significantly affects absorption
[3]
  efficacy: effective
  tolerability: well tolerated

## C[C@]12CC[C@H]3[C@@H](CCC4=CC(=O)CC[C@@]43C)[C@@H]1CC[C@@H]2O [testosterone]
[4]; placebo +2.3%, no statistically significant difference
  change in VAT: +0.9%
[4]; placebo +3.1%, statistically significant
  change in limb fat: −10.1%
[4]; placebo +4.3%, statistically significant
  change in abdominal fat: −1.5%
[4]; placebo +4.6%, statistically significant
  change in trunk fat: −9.9%
[4]; placebo +8.1%, statistically significant
  change in abdominal subcutaneous adipose tissue (SAT): −7.2%
